Data published in US20080207521A1, “PEPTIDE LIGAND TO IMPAIR CANCER CELL MIGRATION” (priority 2005, published 2008).
Ends that are not written are not given here. * marks the point of attachment. For = O=C*

How the values were obtained:
[1] = test system: MDA-MB-468 cells; test: Adhesion of MDA-MB-468 breast cancer cells to collagen I (MTS); assay type: cell-based, human; details: for adhesion to collagen I, N-terminal deletion variants and formylation of peptide 175: 60 min; for MDA-MB-468 cell adhesion: control 15.3±3.6, n=6
Experimental: (§1) The adhesion assay was carried out as previously described (12). Briefly, cells were serum-depleted for 16 h, detached with Versene and allowed to adhere as single cells to collagen I for 60 (MDA-MB-468) or 90 min (HB2) at 37° C. Non-adherent cells were removed by washing with PBS. The adherent cells were incubated with a (3-(4,5-dimethylthiazol-2-yl)-5-(3-carboxymethoxyphenyl)-2-(-4-sulfophenyl)-2H-tetrazolium, inner salt (MTS) dye reduction assay (Promega, Madison, Wis.) and absorbance was measured at 490 nm using a Fluostar microplate reader from BMG LabTechnologies (GmbH, Offenberg, Germany). In each experiment a single value was calculated based on the mean of adhesion from six separate wells after the adhesion to plastic alone had been subtracted. The CM used as a control in the adhesion assays was obtained from confluent Wnt-5a overexpressing HB2 cells (for experiments with Wnt-5a antisense HB2 cells) or Wnt-5a overexpressing MCF-7 cells (for MDA-MB-468 cells) stably transfected with a vector over-expressing Wnt5a. A collected CM was always used within three days.
Peptide-induced effects on adhesion and DDR1 phosphorylation in MDA-MB-468 breast cancer cells. (A) Western blot analysis of Wnt-5a protein expression in Wnt-5a antisense and Wnt-5a over-expressing HB2 cells in comparison to MDA-MB-468 tumour cells. The blot is representative of 9 separate experiments. (B) Peptide-induced effects on MDA-MB-468 tumour cell adhesion. The cells were allowed to adhere to collagen type I-coated wells for 60 min in the absence or presence of 100 μM of the indicated peptides or CM. The amounts of adhesive cells were analyzed as described in the methods and the results are given as means±SEM of 8 separate experiments. (C) MDA-MB-468 cell adhesion to collagen I-coated wells in the absence or presence of peptide 175 or a peptide with same amino acid sequence except for a substitution of cysteine for alanine (175Ala) or CM. The amount of adherent cells was estimated as in panel A and expressed as means±SEM of 6 separate experiments, ns=not significant, ** p<0.01 and *** p<0.001. (D) Single MDA-MB-468 cells were allowed to adhere to collagen I-coated plates for 60 min in the absence or presence of the indicated peptides (100 μM), CM or recombinant Wnt-5a (0.8 µg/ml). DDR1 immunoprecipitates were Western blotted with first an anti-phosphotyrosine Ab and then after stripping with an anti-DDR1 Ab. The blots shown are representative of 6 separate experiments.
(§2) Effects of peptide 175 modifications on its ability to induce MDA-MB-468 tumour cell adhesion and migration. (A) The cells were allowed to adhere for 60 min to collagen-I coated wells in the absence or presence of peptide 175, three stepwise N-terminal deletion variants of peptide 175 or a formylated version of the tested hexapeptide derived from peptide 175. The amounts of adhesive cells were analyzed as described in the methods and the results are given as means±SEM of 6 separate experiments. (B and C) The cells were allowed to migrate for 18 h in the absence or presence of 1 or 10 μM of peptide 175 (B) or the formylated hexapeptide (C). The data are given as means±SEM of 6 separate experiments, each performed in triplicate. * p<0.05, p<0.01.

[2] = test system: MDA-MB-468 cells; test: Migration of MDA-MB-468 cells in modified Boyden chamber; assay type: cell-based, human; details: 18 h
Experimental: The HB2 mammary epithelial cell line, a subclone of the MTSV-1.7 cell line, originating from the laboratory of Dr. J. Taylor-Papadimitriou (11) was used. The HB2 cells were cultured in DMEM supplemented with 10% FBS, 5 U/mi penicillin, 0.5 U/ml streptomycin, 2 mM glutamine, 10 μg/ml bovine insulin and 5 μg/ml hydrocortisone. The human mammary carcinoma cell lines MCF-7 and MDA-MB-468 were cultured in DMEM supplemented with 10% FBS, 5 U/ml penicillin, 0.5 U/ml streptomycin and 2 mM glutamine. The pH-experiments were done in MEM supplemented with 10 mM Tris, 0.5% BSA, 5 U/ml penicillin, 0.5 U/ml streptomycin and 2 mM glutamine. The pH 7.4-medium was further supplemented with 4 mM sodium bicarbonate whereas the pH 6.7-medium was not. All cells were incubated at 37° C. in 95% air and 5% CO2.
Cell migration analyses were performed in a modified Boyden chamber with a polycarbonate membrane (10 μm thick with a porous diameter of 8.0 μm) separating the two chambers (Transwell®; Costar, Cambridge, Mass.). As indicated in some experiments the membranes were coated with collagen by adding collagen-I (10 μg/ml) diluted in 0.25% acetic acid to the upper chamber for 1 h at 37° C., after which it was washed three times with PBS. Each experiment was initiated by detaching the cells by Versene treatment for 10-20 min at 37° C., washed, and re-suspended as a single cell suspension in serum-free DMEM medium supplemented with 0.5% BSA. Together with the indicated agonist a 0.2 ml cell suspension (containing 25,000 MDA-MB-468 or 50,000 HB2 cells) was then added to the upper chamber of the transwell. The lower chamber was filled with 0.6 ml serum-free but BSA-containing DMEM medium supplemented with 1 ng/ml of the chemoattractant IGF-I. As a control, IGF-I was excluded in some wells in each separate experiment. The cells were allowed to migrate in the Boyden chamber for 18 h at 37° C. in a humidified atmosphere of 95% air and 5% CO2. The experiments were terminated by removing the non-migratory cells with a cotton-tipped applicator from the upper surface of the membranes. The remaining cells on the lower surface that had migrated through the membrane were stained for 20 min with 0.5% crystal violet diluted in 20% methanol/80% water. After washing the membranes the number of stained cells per membrane and well was counted in an inverted microscope. The value from each separate experiment represents the median value of three individual wells.
Peptide-induced effects on MDA-MB-468 tumour cell migration and their content of F-actin. (A) The cells were allowed to migrate for 18 h in the absence or presence of the indicated peptides (100 μM) The data in panel A are expressed as means±SEM of 8 separate experiments, each performed in triplicate. * p<0.05. (B) The cells were allowed to adhere to collagen I-coated cover glasses for 18h in the absence or presence of peptide 175 (100 μM). The cells were then stained with Alexa488-Phalloidin as described in the methods section. The illustrated micrographs are representative of 5 separate experiments.
as §2
Effects of Frz-5 receptor blocking and reduced pH on the abilities of the formylated hexapeptide and Wnt-5a to inhibit tumour cell migration. […]

[3] = target: Frz-5 receptor (Homo sapiens, UniProt Q13467); test: MDA-MB-468 cell migration with Frz-5 receptor blocking Ab or control anti-Frz-2 Ab; assay type: cell-based; parameters: endogenous in cells; host or cells: MDA-MB-468; details: formylated hexapeptide 100 μM; Ab 5 μg/ml; 18 h
Frz-5 receptor, sequence (Q13467 27-585): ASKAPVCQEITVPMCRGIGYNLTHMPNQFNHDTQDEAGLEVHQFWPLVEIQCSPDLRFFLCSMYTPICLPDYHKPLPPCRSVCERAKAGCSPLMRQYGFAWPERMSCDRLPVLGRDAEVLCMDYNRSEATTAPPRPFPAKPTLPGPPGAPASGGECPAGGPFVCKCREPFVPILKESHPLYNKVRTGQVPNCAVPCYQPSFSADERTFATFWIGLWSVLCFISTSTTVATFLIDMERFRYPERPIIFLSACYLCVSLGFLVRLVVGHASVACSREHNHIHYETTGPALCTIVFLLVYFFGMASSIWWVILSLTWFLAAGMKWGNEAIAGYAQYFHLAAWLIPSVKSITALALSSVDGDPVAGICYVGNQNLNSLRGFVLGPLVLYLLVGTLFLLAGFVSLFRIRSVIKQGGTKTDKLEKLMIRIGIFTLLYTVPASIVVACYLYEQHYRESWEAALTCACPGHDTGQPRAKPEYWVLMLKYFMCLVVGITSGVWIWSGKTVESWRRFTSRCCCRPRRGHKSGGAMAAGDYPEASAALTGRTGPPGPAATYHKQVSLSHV
Experimental: The peptide […], corresponding to amino acids 198-217 in the ectodomain of the human Frz-5 receptor was as previously described used to generate a Frz-5 receptor blocking Ab (13). The peptide […], corresponding to amino acids 202-220 in the ectodomain of the human Frz-2 receptor, was used to generate a control anti-Frz-2 Ab. The synthesis of the peptides (the italic letters indicate the Frz-5 and Frz-2 sequences, the cysteine was added for raising and purifying the Ab) and the production of rabbit anti-Frz-5 and anti-Frz-2 antisera were managed by AgriSera (Vännäs, Sweden; permit A69-04 from Ume(a) animal ethic committe). The antisera were affinity purified in the laboratory by coupling the respective peptide antigen to Sulfolink Sepharose over which the respective antisera was then eluted.
Cell migration analyses were performed in a modified Boyden chamber with a polycarbonate membrane (10 μm thick with a porous diameter of 8.0 μm) separating the two chambers (Transwell®; Costar, Cambridge, Mass.). As indicated in some experiments the membranes were coated with collagen by adding collagen-I (10 μg/ml) diluted in 0.25% acetic acid to the upper chamber for 1 h at 37° C., after which it was washed three times with PBS. […] After washing the membranes the number of stained cells per membrane and well was counted in an inverted microscope. […]

[4] = test system: Wnt-5a antisense HB2 cells; test: Adhesion of Wnt-5a antisense HB2 cells to collagen I (MTS); assay type: cell-based, human; details: for adhesion to collagen I, concentration-dependent analysis: 95% pure peptides, different concentrations
Experimental: as §1
To control the specificity of the CM, it was incubated with either the Wnt-5a or a control Ab for 45 min at 37° C. Subsequently 10 μl Protein A Sepharose was added for 30 min and after the protein A-bound antibodies were collected by centrifugation the remaining supernatants were used for the experiments.
Effects of crude peptides on adhesion of Wnt-5a antisense HB2 cells to collagen. (A) Single cells were allowed to adhere for 90 min in the absence or presence of the indicated crude peptides (100 μM). The amounts of adhesive cells were analyzed as described in the methods and the results are given as means±SEM of 7 separate experiments. (B) Adhesion of Wnt-5a antisense HB2 cells to collagen was analyzed after pre-treating the cells with an anti-[…]1-integrin Ab for 45 min before letting them adhere for 90 min in the absence or presence of peptides 171 or 175 (100 μM) or CM. The amounts of adhesive cells were analyzed as described in the methods and the results are given as means±SEM of 6 separate experiments (C) The diagram outlines a control of the presently used CM. The cells were allowed to adhere to collagen I-coated wells in the absence or presence of normal CM or Wnt-5a depleted CM. The amounts of adhesive cells were analyzed as described in the methods and the results are given as means±SEM of 6 separate experiments. Ns=not significant, * p<0.05, ** p<0.01 and *** p<0.001.
Effects of the selected and pure peptides on the ability of Wnt-5a antisense HB2 cells to adhere and migrate. (A-E) The ability of the cells to adhere to collagen type I-coated wells was analyzed as previously described for FIG. 2 in the absence or presence of different concentrations of the indicated peptide. (F) Effect of the indicated peptides on migration of Wnt-5a antisense HB2 in a transwell migration assay. The cells were allowed to migrate for 18 h in the absence or presence of 100 μM peptide or 0.4 μg/ml of recombinant Wnt5a. The data are given as means±SEM of 6-7 separate experiments, each performed in triplicate. * p<0.05 and ** p<0.01.

[5] = test system: DDR1; test: Collagen-induced DDR1 phosphorylation in Wnt-5a antisense HB2 cells (immunoprecipitation/Western blot); assay type: cell-based, human; details: crude peptide (approximately 65% pure) 100 μM; 90 min on collagen I
Experimental: The phosphorylation status of DDR1 was analyzed as previously described (12), with the following modifications. After serum-depletion for 16 h, the cells were detached with Versene and then allowed to adhere to collagen I for 60 (MDA-MB-468) or 90 min (HB2) at 37° C. The experiments were terminated by lysing both adherent and non-adherent cells with a lysis buffer (50 mM Tris pH 7.4, 1% Triton-X, 5 mM EDTA, 5 mM EGTA, 50 mM NaCl, 10 μg/ml aprotinin, 2.5 mM benzamidine, 1 mM pefabloc, 1 μg/ml leupeptin and 1 mM Na3VO4). For immunoblotting an anti-DDR1 rabbit polyclonal Ab, sc-532 (Santa Cruz Biotech, Santa Cruz, Calif.) was used at a dilution of 1:10,000. The Ab recognizes DDR1b/c, which is essential because collagen only induces phosphorylation of the b or c isoforms of DDR1 in mammary epithelial cells (10).
Effects of crude peptides on collagen-induced DDR1 phosphorylation in Wnt-5a antisense HB2 cells. Single cells were allowed to adhere to collagen I-coated plates in the presence of the indicated crude peptide (100 μM). (A) Experiments performed in the presence of peptides 167-173. (B) Experiments performed in the presence of peptides 175-180. After 90 min the cells were lysed and DDR1 immunoprecipitated. Subsequently, the immunoprecipitates were subjected to Western blot analysis with an anti-phosphotyrosine Ab and then, after stripping, with an anti-DDR1 Ab to ascertain equal loading. The blots shown are representative of 3 separate experiments The diagrams show densitometric analysis of DDR1 phosphorylation, expressed as per cent of control.

MDGCEL [hexapeptide, N-terminal deletion variant of peptide 175]
adhesion to collagen I, N-terminal deletion variants and formylation of peptide 175 [1]: no effect was detectable and none

formyl-Met-Asp-Gly-Cys-Glu-Leu (For-MDGCEL) [formylated hexapeptide]
inhibition of migration at pH 6.7 versus pH 7.4 ([2]; 10 μM): as effective in inhibiting MDA-MB-468 cell migration at pH 6.7 as at pH 7.4
motility (migration) ([2]; 10 μM): significantly impaired the motility
minimal concentration that had a significant effect on migration [2]: 10 µM
adhesion to collagen I, N-terminal deletion variants and formylation of peptide 175 [1]: restored, and possibly even potentiated its effect on adhesion
effect on migration in presence of anti-Frz-5 or anti-Frz-2 Ab [3]: mediated via the Frz-5 receptor

LGTQGRLCNKTSEGMDGCEL (Human) [peptide 174, Wnt-5a aa 303-322]
adhesion to collagen I, concentration-dependent analysis [4]: not as effective as the shorter peptide 175

EGMDGCEL (Human) [octapeptide, N-terminal deletion variant of peptide 175]
adhesion to collagen I, N-terminal deletion variants and formylation of peptide 175 [1]: still had adhesion-increasing effects

fMet-Leu-Phe (MLF) [reference compound]
MDA-MB-468 cell adhesion [1]: 15.7±4.5
MDA-MB-468 cell adhesion ([1]; listed as N-formyl-Met-Leu-Phe): no effect

VKAKKATEIVDQFVA [compound 170, Wnt-5a aa 350-364; the 3 cysteines exchanged to alanines]
adhesion to collagen I, concentration-dependent analysis [4]: lost or less consistent
DDR1 phosphorylation [5]: significant DDR1 phosphorylation

DARERERIHAKGSYE [peptide 168, Wnt-5a aa 183-197]
adhesion to collagen I ([4]; crude peptide (65% pure) 100 μM, 90 min): did not have any effect on adhesion
DDR1 phosphorylation [5]: significant DDR1 phosphorylation
